In patent US11000033B2, “Ketone or oxime compound, and herbicide” (NISSAN CHEMICAL CORPORATION, priority 2014, dated 2021):

Experiments:
Type in all cases: in vivo
Scirpus juncoides = experiment: Test Example 1: herbicidal activity, application before weed generation in submerged conditions (symbol B); conditions: application herbicide amount 320 g/ha
Outline: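 Ratings (5: ≥90%, near complete withering; 4: 70–<90%; 3: 40–<70%; 2: 20–<40%; 1: 5–<20%; 0: ≤5%) were assigned 3 weeks after the diluted emulsion was applied to the water surface of freshly sown, submerged pots.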

[1] = tested on: directly sowed rice plant; experiment: Test Example 3: effect on crop by foliage application, Wagner pot (symbol b); conditions: application herbicide amount 320 g/ha
Outline: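 Greenhouse culture at 25–30 °C of seeded rice, Cyperus difformis, Leptochloa chinensis and Echinochloa crus-galli var. crus-galli, in alluvial soil held under 0.1–0.5 cm of water in a Wagner pot.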

Digitaria ciliaris [2] = experiment: Test Example 4: herbicidal effect by soil treatment (symbol F); conditions: for F: Digitaria ciliaris, herbicidal effect grade: 320 g/ha
Outline: (§1)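 Seeds were sown in sterilized diluvial soil, covered with about 1.5 cm of soil, and the soil surface was sprayed with a water-diluted emulsion of the compound at a predetermined rate. Plants grew in a greenhouse at 25° C. to 30° C.; effects were scored visually 3 weeks after application.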

[3] = tested on: Echinochloa crus-galli var. crus-galli; experiment: Test Example 4: herbicidal effect by soil treatment (symbol H); conditions: for H: Echinochloa crus-galli var. crus-galli, herbicidal effect grade: 320 g/ha
Outline: as §1

Avena fatua [4] = experiment: Test Example 4: herbicidal effect by soil treatment (symbol I); conditions: for I: Avena fatua, herbicidal effect grade: 320 g/ha
Outline: as §1

Lolium multiflorum Lam. = experiment: Test Example 4: herbicidal effect by soil treatment (symbol K); conditions: for K: Lolium multiflorum Lam., herbicidal effect grade: 320 g/ha
Outline: as §1

Chenopodium album [5] = experiment: Test Example 4: herbicidal effect by soil treatment (symbol O); conditions: for O: Chenopodium album, herbicidal effect grade: 320 g/ha
From the text: Herbicidal Effect Test by Soil Treatment
Sterilized diluvial soil was placed in a plastic box having a length of 21 cm, a width of 13 cm, and a depth of 7 cm. Each of the seeds of Digitaria ciliaris, Setaria viridis, Echinochloa crus-galli var. crus-galli, Avena fatua, Alopecurus myosuroides, Lolium multiflorum Lam., Apera spica-venti, Abutilon theophrasti, Amaranthus retroflexus, Chenopodium album, Stellaria media, Galium spurium, Veronica persica, corn, soybean, rice, wheat, beet, and rapeseed was sowed in a spot-like manner and was covered with the soil of a thickness of about 1.5 cm. Subsequently, the emulsion agent of the compound present invention prepared in accordance with Formulation Example 2 was diluted with water so as to be a predetermined herbicide amount and the diluted emulsion agent was uniformly applied to the surface of the soil with a small-size spray. The plastic box was placed in a greenhouse of 25° C. to 30° C. to grow plant. 3 weeks later from the herbicide application, the effect to each plant was investigated in accordance with the criteria of Test Example 1.

rice = experiment: Test Example 4: effect on crop by soil treatment (symbol b); conditions: for b: directly sowed rice plant, effect grade on crop: 320 g/ha
Outline: (§2)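 Greenhouse culture at 25° C. to 30° C. followed sowing of seed in spots on sterilized diluvial soil with a soil cover close to 1.5 cm thick.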

rapeseed [6] = experiment: Test Example 4: effect on crop by soil treatment (symbol g); conditions: for g: rapeseed, effect grade on crop: 320 g/ha
Outline: as §2

Digitaria ciliaris [7] = experiment: Test Example 5: herbicidal effect by foliage application, plastic box (symbol F); conditions: 320 g/ha, 3 weeks after application
Outline: (§3)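 After sowing into sterilized diluvial soil and growing two weeks under glass at 25° C. to 30° C., seedlings receive a uniform foliar spray of diluted emulsion. Damage is judged visually three weeks on.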

Avena fatua [8] = experiment: Test Example 5: herbicidal effect by foliage application, plastic box (symbol I); conditions: 320 g/ha, 3 weeks after application
Outline: as §3

Chenopodium album [9] = experiment: Test Example 5: herbicidal effect by foliage application, plastic box (symbol O); conditions: 320 g/ha, 3 weeks after application
Outline: as §3

Stellaria media = experiment: Test Example 5: herbicidal effect by foliage application, plastic box (symbol P); conditions: 320 g/ha, 3 weeks after application
Outline: as §3

Veronica persica = experiment: Test Example 5: herbicidal effect by foliage application, plastic box (symbol R); conditions: 320 g/ha, 3 weeks after application
Outline: as §3

corn = experiment: Test Example 5: effect on crop by foliage application, plastic box (symbol c); conditions: 320 g/ha, 3 weeks after application
Outline: (§4)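 Seeds were sown in spots in sterilized diluvial soil held in a plastic box 21 cm × 13 cm × 7 cm deep, covered with about 1.5 cm of soil, and grown in a greenhouse at 25° C. to 30° C.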

wheat = experiment: Test Example 5: effect on crop by foliage application, plastic box (symbol e); conditions: 320 g/ha, 3 weeks after application
Outline: as §4

rapeseed [10] = experiment: Test Example 5: effect on crop by foliage application, plastic box (symbol g); conditions: 320 g/ha, 3 weeks after application
Outline: as §4

[11] = application herbicide amount 320 g/ha

Compound	F: Digitaria ciliaris, herbicidal effect grade (Digitaria ciliaris [7])	I: Avena fatua, herbicidal effect grade (Avena fatua [8])	O: Chenopodium album, herbicidal effect grade (Chenopodium album [9])	R: Veronica persica, herbicidal effect grade (Veronica persica)	c: corn, effect on crop grade (corn)	e: wheat, effect on crop grade (wheat)	g: rapeseed, effect on crop grade (rapeseed [10])	Herbicidal effect grade, B: Scirpus juncoides (Scirpus juncoides)	F: Digitaria ciliaris, herbicidal effect grade (Digitaria ciliaris [2])	H: Echinochloa crus-galli var. crus-galli, herbicidal effect grade [3]	I: Avena fatua, herbicidal effect grade (Avena fatua [4])	K: Lolium multiflorum Lam., herbicidal effect grade (Lolium multiflorum Lam.)	O: Chenopodium album, herbicidal effect grade (Chenopodium album [5])	b: directly sowed rice plant, effect grade on crop (rice)	g: rapeseed, effect grade on crop (rapeseed [6])	F: Digitaria ciliaris, herbicidal effect (criteria 0-5) (Digitaria ciliaris [7])	I: Avena fatua, herbicidal effect (criteria 0-5) (Avena fatua [8])	P: Stellaria media, herbicidal effect (criteria 0-5) (Stellaria media)	R: Veronica persica, herbicidal effect (criteria 0-5) (Veronica persica)	c: corn, effect on crop (criteria 0-5) (corn)	other results
CON=C(C)CC1C(O)=C(c2c(C)cc(C)cc2C)C(=O)C1C (mixture of isomers) [12-002]	5 (Herbicidal ratio of 90% or more (almost completely withered))	5 (Herbicidal ratio of 90% or more (almost completely withered))	2 (Herbicidal ratio of 20% or higher and lower than 40%)	4 (Herbicidal ratio of 70% or higher and lower than 90%)	5 (Herbicidal ratio of 90% or more (almost completely withered))	2 (Herbicidal ratio of 20% or higher and lower than 40%)	5 (Herbicidal ratio of 90% or more (almost completely withered))	–	–	–	–	–	–	–	–	–	–	–	–	–	B (Scirpus juncoides) herbicidal effect grade (Scirpus juncoides): 3 (Herbicidal ratio of 40% or higher and lower than 70%); b (directly sowed rice plant) effect on crop grade ([1]; Table 24): 5 (Herbicidal ratio of 90% or more (almost completely withered)); Herbicidal effect grade, F: Digitaria ciliaris (Digitaria ciliaris [2]; [11]): 4 (Herbicidal ratio of 70% or higher and lower than 90%); Herbicidal effect grade, H: Echinochloa crus-galli var. crus-galli [3, 11]: 5 (Herbicidal ratio of 90% or more (almost completely withered)); Herbicidal effect grade, I: Avena fatua (Avena fatua [4]; [11]): 4 (Herbicidal ratio of 70% or higher and lower than 90%); Herbicidal effect grade, K: Lolium multiflorum Lam. (Lolium multiflorum Lam.; [11]): 5 (Herbicidal ratio of 90% or more (almost completely withered)); Herbicidal effect grade, O: Chenopodium album (Chenopodium album [5]; [11]): 0 (Herbicidal ratio of 5% or lower (almost no effect)); Effect on crop grade, b: directly sowed rice plant (rice; [11]): 4 (Herbicidal ratio of 70% or higher and lower than 90%); Effect on crop grade, g: rapeseed (rapeseed [6]; [11]): 1 (Herbicidal ratio of 5% or higher and lower than 20%); P: Stellaria media, herbicidal effect grade (Stellaria media): 4 (Herbicidal ratio of 70% or higher and lower than 90%)
CC(CC1CC(O)=C(c2c(C)cc(C)cc2C)C1=O)=NOCc1ccccc1Cl (centres unmarked) [1-113]	–	–	–	–	–	–	–	4 (Herbicidal ratio of 70% or higher and lower than 90%)	1 (Herbicidal ratio of 5% or higher and lower than 20%)	0 (Herbicidal ratio of 5% or lower (almost no effect))	3 (Herbicidal ratio of 40% or higher and lower than 70%)	5 (Herbicidal ratio of 90% or more (almost completely withered))	0 (Herbicidal ratio of 5% or lower (almost no effect))	2 (Herbicidal ratio of 20% or higher and lower than 40%)	0 (Herbicidal ratio of 5% or lower (almost no effect))	5 (Herbicidal ratio of 90% or more (almost completely withered))	4 (Herbicidal ratio of 70% or higher and lower than 90%)	3 (Herbicidal ratio of 40% or higher and lower than 70%)	4 (Herbicidal ratio of 70% or higher and lower than 90%)	0 (Herbicidal ratio of 5% or lower (almost no effect))	O: Chenopodium album, herbicidal effect (criteria 0-5) (Chenopodium album [9]): 2 (Herbicidal ratio of 20% or higher and lower than 40%); e: wheat, effect on crop (criteria 0-5) (wheat): 3 (Herbicidal ratio of 40% or higher and lower than 70%); g: rapeseed, effect on crop (criteria 0-5) (rapeseed [10]): 5 (Herbicidal ratio of 90% or more (almost completely withered))
CON=C(C)CC1CC(OC(=O)C(C)(C)C)=C(c2c(C)cc(C)cc2C)C1=O (centres unmarked) [1-004, 2-mesityl-4-{2-(methoxyimino)propyl}-3-oxocyclopent-1-en-1-yl pivalate]	5 (Herbicidal ratio of 90% or more (almost completely withered))	5 (Herbicidal ratio of 90% or more (almost completely withered))	3 (Herbicidal ratio of 40% or higher and lower than 70%)	4 (Herbicidal ratio of 70% or higher and lower than 90%)	5 (Herbicidal ratio of 90% or more (almost completely withered))	5 (Herbicidal ratio of 90% or more (almost completely withered))	4 (Herbicidal ratio of 70% or higher and lower than 90%)	5 (Herbicidal ratio of 90% or more (almost completely withered))	–	–	–	–	–	–	–	–	–	–	–	–	effect on crop b (directly sowed rice plant), grade 0-5 [1]: 5 (Herbicidal ratio of 90% or more (almost completely withered)); F (Digitaria ciliaris) herbicidal effect grade (Digitaria ciliaris [2]; [11]): 5 (Herbicidal ratio of 90% or more (almost completely withered)); H (Echinochloa crus-galli var. crus-galli) herbicidal effect grade [3, 11]: 5 (Herbicidal ratio of 90% or more (almost completely withered)); I (Avena fatua) herbicidal effect grade (Avena fatua [4]; [11]): 5 (Herbicidal ratio of 90% or more (almost completely withered)); K (Lolium multiflorum Lam.) herbicidal effect grade (Lolium multiflorum Lam.; [11]): 5 (Herbicidal ratio of 90% or more (almost completely withered)); O (Chenopodium album) herbicidal effect grade (Chenopodium album [5]; [11]): 0 (Herbicidal ratio of 5% or lower (almost no effect)); b (directly sowed rice plant) effect on crop grade (rice; [11]): 5 (Herbicidal ratio of 90% or more (almost completely withered)); g (rapeseed) effect on crop grade (rapeseed [6]; [11]): 4 (Herbicidal ratio of 70% or higher and lower than 90%)
C=C(C)CN(CC)C(=O)OC1=C(c2c(C)cc(C)cc2C)C(=O)C(CC(C)=NOC)C1 (centres unmarked) [1-130]	–	–	–	–	–	–	–	0 (Herbicidal ratio of 5% or lower (almost no effect))	0 (Herbicidal ratio of 5% or lower (almost no effect))	0 (Herbicidal ratio of 5% or lower (almost no effect))	0 (Herbicidal ratio of 5% or lower (almost no effect))	3 (Herbicidal ratio of 40% or higher and lower than 70%)	0 (Herbicidal ratio of 5% or lower (almost no effect))	0 (Herbicidal ratio of 5% or lower (almost no effect))	0 (Herbicidal ratio of 5% or lower (almost no effect))	4 (Herbicidal ratio of 70% or higher and lower than 90%)	5 (Herbicidal ratio of 90% or more (almost completely withered))	0 (Herbicidal ratio of 5% or lower (almost no effect))	0 (Herbicidal ratio of 5% or lower (almost no effect))	1 (Herbicidal ratio of 5% or higher and lower than 20%)	effect on crop b (directly sowed rice plant), grade 0-5 [1]: 5 (Herbicidal ratio of 90% or more (almost completely withered)); e: wheat, effect on crop (criteria 0-5) (wheat): 2 (Herbicidal ratio of 20% or higher and lower than 40%); g: rapeseed, effect on crop (criteria 0-5) (rapeseed [10]): 5 (Herbicidal ratio of 90% or more (almost completely withered))
